Test results from PubChem BioAssay AID1159560 (GlaxoSmithKline (GSK), 2015).
Active and inactive are the calls of the source. No rule for the calls is given here.

Tested on: Leishmania donovani growth inhibition
Assay: Leishmania donovani growth inhibition (AID 1159560);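 also: parasites exposed to compound for 72 h before the viability read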

SMILES	IC50
COCc1cc(Nc2ccc(Cl)cc2)nc(-c2ccccn2)n1	2.5 µM
CC(C)(C)c1cc(NC2CC2)nc(-c2ccccn2)n1	1.6 µM
OC1CCC(Nc2nccc(-c3sc(C4CCOCC4)nc3-c3ccc(F)c(F)c3)n2)CC1 (stereo not given)	3.2 µM
COc1ccc(OC)c2c(=O)c(Cc3ccccc3)c(C)[nH]c12	0.4 µM
COc1ccc(C(=O)NC2CCN(CCn3c(=O)ccc4ncc(F)cc43)CC2)cc1Cl	4 µM
Nc1cc(-c2ccc3ncnc(N4CCOCC4)c3c2)cnc1N	4 µM
O=C(NCCc1csc(-c2cccc(F)c2)n1)c1ccco1	> 50 µM (inactive)
COc1ccc(OC)c(S(=O)(=O)N(Cc2c(F)cccc2F)[C@@H]2CCN(C#N)C2)c1	16 µM
NC(=O)c1ccsc1NC(=O)c1ccc([N+](=O)[O-])s1	0.32 µM
COc1ccc2nccc([C@H](O)CN3CC[C@H](NC(=O)c4ccc(Br)cc4)[C@@H](O)C3)c2n1	3.2 µM
CC(c1ccccn1)N(C)Cc1nc2ccccc2n1C(C)C (stereo not given)	10 µM
Nc1nc(-c2ccccn2)nc(-n2nc(-c3cccc(C(F)(F)F)c3)cc2N)n1	10 µM
CC(C)C[C@H](NC(=O)c1ccc(-c2ccccc2)o1)C(=O)NC1(C#N)CC1	> 50 µM (inactive)
Cc1c(C(=O)NCCCCn2ccnc2)oc2c(C)cccc12	> 50 µM (inactive)
COc1ccc(CN2CCCCC2c2nc(-c3cccnc3)no2)cc1 (stereo not given)	> 50 µM (inactive)
COc1ccc(Oc2ccc(C(C)N(C)c3ncc4c(N)nc(N)nc4n3)cc2)cc1 (stereo not given)	0.04 µM
CCOc1ccc(N(C)S(=O)(=O)c2ccc3[nH]cc(C(=O)NC4CCCC4)c(=O)c3c2)cc1	> 50 µM (inactive)
NS(=O)(=O)c1ccc(Nc2ncc3cccc(OC4CCNCC4)c3n2)cc1	40 µM
CC(C)c1cc(C(=O)N2CCCC(c3cc4ncccc4[nH]3)C2)on1 (stereo not given)	> 50 µM (inactive)
Cc1ccc(NC(=O)c2ccc([N+](=O)[O-])s2)cc1S(=O)(=O)N1CCOCC1	2 µM
O=C(Nc1nc2cc(Cl)ccc2o1)c1cccc(Cl)c1	0.4 µM
O=c1cc(NCCCNCc2c[nH]c3ccc(Br)cc23)[nH]c2ccccc12	> 50 µM (inactive)
Cc1cc(Nc2cc(C3CC3)[nH]n2)nc(N2CCC[C@H]2C(N)=O)n1	0.63 µM
CC1CN(S(=O)(=O)c2ccc(NC(=O)c3cc(C4CC4)nc4c3cnn4C(C)C)cc2)CC(C)O1 (stereo not given)	20 µM
Cc1ccc(S(C)(=O)=O)cc1Nc1nccc(-c2sc(N)nc2-c2ccccc2)n1	3.2 µM
Cc1cc(Br)cc(C(=O)c2c(C(C)C)c(=O)[nH]c(=O)n2Cc2ccnc(N)c2)c1	> 50 µM (inactive)
CC(C)n1c(-c2nonc2N)nc2cccc(OCCN3CCCC3)c21	> 50 µM (inactive)

SMILES	IC50
O=C(Nc1nccs1)c1ccccc1Cn1cc([N+](=O)[O-])cn1	> 50 µM (inactive)
COc1cccc(NS(=O)(=O)c2ccc3[nH]cc(C(=O)NCCC(C)C)c(=O)c3c2)c1	> 50 µM (inactive)
COc1ccc(OC)c(NC(=O)c2ccc([N+](=O)[O-])o2)c1	25 µM
Cn1c(CN2CCN(c3ncc(C(F)(F)F)cc3Cl)CC2)nc2ccncc21	5 µM
CC(=O)Nc1cccc(Nc2ncnc3nc[nH]c23)c1	> 50 µM (inactive)
C[C@@H](Oc1cc(-n2cnc3ccc(CC(O)CO)cc32)sc1C(N)=O)c1ccccc1Cl (stereo not given in full)	25 µM
C[C@@H](Oc1cc(-n2cnc3ccc(O[C@H]4CCNC4)cc32)sc1C(N)=O)c1ccccc1Cl	> 50 µM (inactive)
Cc1cc2cncn2c(C2CCCCN2C(=O)c2cccs2)n1 (stereo not given)	0.4 µM
COc1cc(F)c2ncc(F)c(CCN3CC[C@H](NCc4cc5c(cn4)OCS5)[C@@H](O)C3)c2c1	25 µM
CCCc1cc(N)nc(-c2cc(CCC)cc(N)n2)c1	20 µM
COc1ncc(-c2ccc3nccc(-c4ccncc4)c3c2)cc1NS(C)(=O)=O	3.2 µM
CCN(CC)c1nc(N(C)C)nc2c1CN(Cc1ccccc1)CC2	7.9 µM
O=C(CCCn1cnc([N+](=O)[O-])n1)Nc1cccc(Cl)c1	> 50 µM (inactive)
O=C(CN(Cc1ccccn1)Cc1ccccn1)NC1Cc2ccccc2C1	13 µM
COc1ccc(Nc2nccc(N(C)c3n[nH]c4c(F)cccc34)n2)cc1S(C)(=O)=O	25 µM
Cc1ccccc1NS(=O)(=O)c1ccc2[nH]cc(C(=O)NC3CCCC3)c(=O)c2c1	> 50 µM (inactive)
CCOc1ccc(NC(=O)c2ccc(NC(=O)NC3CCCCC3)cc2)cc1	> 50 µM (inactive)
CCc1cc(C(=O)Nc2nccn2-c2ccccc2)cs1	6.3 µM
CCCN1CCN(Cc2ccc(S(=O)(=O)Nc3cccc(C)c3)cc2)CC1	25 µM
CC(C)CC(=O)NC(c1cccs1)c1ccc2cccnc2c1O (stereo not given)	6.3 µM
O=C(O)[C@H]1C[C@@H]1c1ccc(-c2ccc(CN(CCc3ccccn3)C(=O)C3CCC3)cc2)cc1	25 µM
Cc1nn(-c2nc(N)nc(-c3ccccn3)n2)c(C)c1Cc1ccccc1	5 µM
Cc1nn(C)c(Cl)c1CN(Cc1cccnc1)Cc1ccsc1	2 µM
O=S(=O)(NCC(c1cccnc1)N1CCN(c2ccc(F)cc2)CC1)c1cccs1 (stereo not given)	> 50 µM (inactive)
Cc1ccccc1CNc1cc(C2CC2)nc(-c2nccn2C)n1	1.6 µM
O=C(Nc1nc2ccccc2[nH]1)c1c(O)c2cccc3c2n(c1=O)CC3	2.5 µM
CS(=O)(=O)NC1CCC(Nc2ncc(Br)c(Nc3ccccc3C(N)=O)n2)CC1 (stereo not given)	1 µM

SMILES	IC50
Cc1ccccc1NS(=O)(=O)c1ccc2[nH]cc(C(=O)NC3CCCCC3)c(=O)c2c1	> 50 µM (inactive)
O=C(Nc1cccc(F)c1)N1CCC(Oc2cccc(-c3cccnc3)c2)CC1	0.5 µM
Cc1cc(=O)n2nc(Oc3ccc(C#N)cc3Cl)sc2n1	13 µM
COc1ccc(CN2C(=O)C(O)(CC(=O)c3ccncc3)c3cc(Br)ccc32)cc1OC (stereo not given)	40 µM
O=C(Nc1cccc(Cl)c1)Nc1ccc([N+](=O)[O-])cc1Cl	6.3 µM
O=c1ccc2ccc(F)c3c2n1C[C@H]3CN1CCC(NCc2cc3ccccc3o2)CC1	16 µM
CS(=O)(=O)c1cccc(CNC(=O)c2cncc(N3CCN(c4ccc(F)cc4)CC3)c2)c1	> 50 µM (inactive)
COc1ccc(C(C)N(C)c2ncc3c(N)nc(N)nc3n2)cc1F (stereo not given)	4 µM
O=c1ccc2ccc(F)c3c2n1C[C@H]3CN1CCN(CC(O)c2cc3c(cn2)OCS3)CC1 (stereo not given in full)	20 µM
COc1ccc(-c2cc(C)no2)cc1S(=O)(=O)Nc1ccc(F)c(Cl)c1	25 µM
CS(=O)(=O)c1cccc(-c2cnc(N)c3c(-c4ccc(CO)cc4)csc23)c1	40 µM
COc1ccccc1-c1c(C)[nH]c2nc(N)nc(C)c12	13 µM
O=C(c1cccc(Cl)c1Cl)N1CCn2c1nc(-c1ccncc1)cc2=O	50 µM
N#Cc1cc(-c2ccnc(Nc3cccc(CN4CCOCC4)c3)n2)ccc1NCCN	4 µM
CC(C)(C)C(O)(CCc1ccc(Cl)cc1)Cn1cncn1 (stereo not given)	3.2 µM
Cc1cc(NC(=O)C2CC2)ccc1OC1CCN(Cc2ccco2)CC1	> 50 µM (inactive)
COc1ccc(S(=O)(=O)Nc2ccccc2OC)cc1NC(=O)CCCc1c[nH]c2ccccc12	25 µM
COC(=O)c1ccc(-c2cnc3ccc(NCc4ccccn4)nn23)cc1	13 µM
CCN(CC)c1ccc(S(=O)(=O)N(CC)CC)c2nonc12	6.3 µM
O=C(N1CCc2ccccc2CC1)C1(C(=O)N2CCC(n3c(=O)[nH]c4ncccc43)CC2)CC1	> 50 µM (inactive)
Cc1nccn1C1CCCN(C(=O)c2cc3c(F)cccc3s2)C1 (stereo not given)	5 µM
O=C(NCCCn1cnc2ccccc21)c1ccc(NC(=O)c2ccco2)cc1	1.3 µM
CC(C)(C)C(Cn1ccnc1)NC(=O)c1ccc2nc(C3CC3)oc2c1 (stereo not given)	20 µM
CCOc1ccc(NC(=O)C=Cc2ccc(CC)o2)cc1	20 µM
COc1ccccc1C1CC(c2ccc(NS(C)(=O)=O)cc2)=NN1C(=O)c1cccs1 (stereo not given)	4 µM
CCN(CC)S(=O)(=O)c1ccc(OC)c(NC(=O)c2ccc([N+](=O)[O-])s2)c1	> 50 µM (inactive)
COc1ccc(-c2csc(NC(=O)c3ccc([N+](=O)[O-])s3)n2)cc1OC	1 µM

SMILES	IC50
CC(C)Nc1nc(Cl)nc2ccccc12	20 µM
CC(=O)Nc1ccc(Nc2nccc(-c3cnn4ncccc34)n2)cc1C(F)(F)F	0.2 µM
O=S1N=C(NCCCN(Cc2ccc(F)cc2)c2ccccn2)C(NCc2ccncc2)=N1 (stereo not given)	> 50 µM (inactive)
COc1ccc([N+](=O)[O-])cc1NC(=O)c1cc(Cl)ccc1O	7.9 µM
Cc1ccc(-c2csc(NC(=O)C=Cc3ccc(S(=O)(=O)N4CCOCC4)cc3)n2)o1	6.3 µM
CC(=O)NC1(c2ccccc2)CCN(CC(=O)Nc2ccccc2-c2ccccc2)CC1	20 µM
COc1ccc2ncc(=O)n(CCN3CCOC(CNCc4ccc(C(F)(F)F)cc4F)C3)c2n1 (stereo not given)	40 µM
O=C(Nc1ccc(Br)cn1)c1ccc(Cn2cnc([N+](=O)[O-])n2)cc1	> 50 µM (inactive)
O=C(Cn1cnc2c(-c3ccccc3)csc2c1=O)N1CCCCC1	> 50 µM (inactive)
Cc1cc(Nc2ccc(C#N)c(Cl)c2C)n[nH]1	50 µM
CCC(CC)C(=O)Nc1ccc(-c2nnc(-c3ccc(OC)cc3)o2)cc1	> 50 µM (inactive)
COc1cc(C(C)C)c(S(C)(=O)=O)cc1C(=O)N1CCN(c2ccccc2Cl)CC1	5 µM
CC(C)(C)Nc1nc(-c2ccccn2)nc2ccccc12	6.3 µM
CCn1nccc1CN(C)C(=O)C=Cc1ccc(Cl)cc1	16 µM
CCOC(=O)c1cn[nH]c1S(=O)(=O)N1CCC1c1ccccc1 (stereo not given)	> 50 µM (inactive)
CCC1Oc2cc(S(=O)(=O)N(C)CC(=O)N3CCc4ccccc4C3)c(C)cc2NC1=O (stereo not given)	> 50 µM (inactive)
c1ccc(Nc2nc3ccccc3[nH]2)nc1	25 µM
OCC1CCCCN1c1cc(-c2ccccn2)nc(Nc2ccccc2)n1 (stereo not given)	3.2 µM
COc1ccc(CNc2cc(C3CC3)nc(-c3nccn3C)n2)cc1	2 µM
CNC(=O)C1Cc2ccccc2N1C(=O)Cc1ccccc1 (stereo not given)	> 50 µM (inactive)
O=c1oc2ccccc2n1C1CCN(Cc2ccccc2-c2cccnc2)CC1	> 50 µM (inactive)
Cc1cccc(Nc2nc(-c3ccccn3)cs2)n1	4 µM
O=C(c1ccc(Cl)cc1)c1ccc(OC(=O)N2CCOCC2)cc1	6.3 µM
O=C(NCc1nnc2n1CCCCC2)c1ccc(-c2ccc(F)cc2)o1	> 50 µM (inactive)
